Experimental data reported in patent publication US20240391964A1, “COMPOSITIONS AND METHODS FOR THE TREATMENT OF CANCER” (The University of Western Australia, priority 2020, published 2024).

What was measured:
[1] = system: human TNBC and HER2-enriched breast cancer cells; assay: Cell viability dose-response assay, TNBC and HER2-enriched panel; type: cell-based; conditions: range over human TNBC and HER2-enriched breast cancer cells
Protocol: (§2) To assess anticancer efficacy and selectivity, both venom from European honeybees collected in Perth, Australia and melittin peptide were evaluated in dose-response assays in a panel of cell lines representative of the intrinsic breast cancer subtypes and in non-transformed cells.
Data are presented as mean±SEM in ng/μL or μM (to two decimal places). Experiments were performed in biological triplicate.

SUM159 cells [2] = assay: Cleaved caspase-3 immunoblot; type: cell-based, human
SUM159 cells [3] = assay: Annexin V flow cytometry; type: cell-based, human; conditions: IC50 concentration, 60 minutes, mean±SEM
Protocol: To quantify the apoptotic, necrotic or dead cell populations after treatment, flow cytometry for the detection of Annexin V (an early marker of apoptosis) was performed.

[4] = system: HDFa, SKBR3 and SUM159 cells; assay: Cell viability kinetics over one hour; type: cell-based, human; conditions: IC50 concentrations
[5] = system: p-HER2, p-EGFR, p-p44/42 MAPK, p-Akt in SKBR3 cells; assay: Immunoblotting of RTK signalling, SKBR3; type: cell-based, human; conditions: SKBR3, EGF exposed, IC50, from 5 minutes onwards
[6] = system: p-EGFR, p-Akt, p-p44/42 MAPK in SUM159 cells; assay: Immunoblotting of RTK signalling, SUM159; type: cell-based, human
[7] = system: EGFR and MAPK phosphorylation in MDA-MB-231 cells; assay: Immunoblotting of RTK signalling, MDA-MB-231; type: cell-based, human; conditions: MDA-MB-231, EGF treatment
Protocol: To characterize the effects on signaling pathways in another TNBC model, immunoblotting was conducted on MDA-MB-231 cells, in which EGF treatment phosphorylated EGFR and induced EGFR expression (FIG. 8C). […] Other growth factor receptors such as VEGFR1 may mediate the activation of these pathways.

[8] = system: JAK/STAT pathway in SUM159 cells; assay: Western blot of JAK/STAT pathway; type: cell-based, human; conditions: 60-minute treatment
T11 tumours = assay: T11 allograft in BALB/c mice, intratumoral treatment; type: in vivo; conditions: day 14 post-inoculation, mean±SEM
Protocol: To investigate the efficacy of the combination of melittin and docetaxel in reducing TNBC growth in vivo, T11 cells were transplanted in BALB/c mice. This allograft model recapitulates highly aggressive, TNBC claudin-low disease in mice with an intact immune system. Three days after the generation of T11 tumours (˜50 mm^3), mice were randomized into four groups (n=12 mice/group) and treated intratumorally with either vehicle, melittin (5 mg/Kg), docetaxel (7 mg/Kg), or a combination of melittin (5 mg/Kg) and docetaxel (7 mg/Kg). Mice were treated every two days from day three, with a total of seven treatments.
The therapeutic effects of melittin and docetaxel were validated in tumour tissues at day 14 post-inoculation of T11 cells by immunohistochemistry and immunofluorescence (FIG. 14A).

T11 cells [9] = assay: Cell viability, combination with docetaxel; type: cell-based, murine; conditions: T11, 48 hours
Protocol: FIG. 15 presents the results of cell viability assays of T11 breast cancer cells treated with melittin or RGD1-melittin alone and in combination with docetaxel for 48 hours. Representative plots of the combination treatments are presented as mean±SEM.
The murine p53 TNBC cell line T11 was treated with docetaxel in combination with either melittin or RGD1-melittin, and cell viability assays were conducted to determine the combination effect between the treatments (FIG. 15).

T11 cells [10] = assay: Cell viability, combination with omomyc; type: cell-based, murine; conditions: T11, 24 hours
Protocol: FIG. 16 presents the results of cell viability assays of T11 breast cancer cells treated with melittin or RGD1-melittin alone and in combination with omomyc for 24 hours. Representative plots of the combination treatments are presented as mean±SEM.
The murine p53 TNBC cell line T11 was treated with omomyc in combination with either melittin or RGD1-melittin, and cell viability assays were conducted to determine the combination effect between the treatments (FIG. 16).

COV362 cells = type: cell-based; conditions: COV362, 24 h
Protocol: (§1) The OVCAR3 and COV362 ovarian cancer cell lines were treated with active RGD1-melittin and mutant RGD1-melittin (DEDE-RGD1-melittin). The COV362 cells were cultured in DMEM low glucose medium supplemented with 10% FBS. The OVCAR3 cells were grown in RPMI medium supplemented with 20% FBS. Cells were seeded overnight at a density of 5000 cells/p96-well plate and treated with active RGD1-melittin and mutant RGD1-melittin (RGD1-DEDE melittin), for 24 h at concentrations up to 20 µM. After treatments, cell viability was assessed using the CellTiter-Glo® assay according to the manufacturer's protocol (Promega; NSW, Australia). Luminescence signals were measured using the EnVision Multilabel Plate Reader (PerkinsElmer Inc.; Waltham, MA, USA). IC50s were calculated and transformed 95% confidence intervals provided by GraphPad Prism 6 software analysis (GraphPad Software Inc., San Diego, CA, USA).

OVCAR3 cells = type: cell-based; conditions: OVCAR3, 24 h
Protocol: as §1

SUM159 cells [11] = system: SUM159 cells
Protocol: FIG. 5C presents cell viability assays of human dermal fibroblasts (HDFa) and SUM159 treated with melittin (top) and RGD1-melittin (bottom) for 24 hours.
as §2

CC[C@H](C)[C@H](NC(=O)CN)C(=O)NCC(=O)N[C@@H](C)C(=O)N[C@H](C(=O)N[C@@H](CC(C)C)C(=O)N[C@@H](CCCCN)C(=O)N[C@H](C(=O)N[C@@H](CC(C)C)C(=O)N[C@H](C(=O)N[C@H](C(=O)NCC(=O)N[C@@H](CC(C)C)C(=O)N1CCC[C@H]1C(=O)N[C@@H](C)C(=O)N[C@@H](CC(C)C)C(=O)N[C@H](C(=O)N[C@@H](CO)C(=O)N[C@@H](Cc1c[nH]c2ccccc12)C(=O)N[C@H](C(=O)N[C@@H](CCCCN)C(=O)N[C@@H](CCCNC(=N)N)C(=O)N[C@@H](CCCCN)C(=O)N[C@@H](CCCNC(=N)N)C(=O)N[C@@H](CCC(N)=O)C(=O)N[C@@H](CCC(N)=O)C(N)=O)[C@@H](C)CC)[C@@H](C)CC)[C@@H](C)O)[C@@H](C)O)C(C)C)C(C)C [melittin]
IC50 [1]: 0.94 to 1.49 µM
induction of apoptosis (cleaved caspase-3) (SUM159 cells [2]; 24 hours): confirmed the anticancer activity
induction of cleaved caspase-3 (apoptosis) (SUM159 cells [2]; IC50 concentration, 18 and 24 hours): higher level of apoptosis than honeybee venom
late apoptotic/necrotic cells (SUM159 cells [3]): 23.6±5.7%
cell viability over up to one hour [4]: significantly reduced the viability of both breast cancer cell lines compared to the normal cells from 10 minutes onwards
p-HER2 (Tyr1248), p-EGFR (Tyr1068), p-p44/42 MAPK (Thr202/Tyr204), p-Akt (Ser473 and Thr308) [5]: strongly downregulated
p-EGFR (Tyr1068) ([6]; SUM159, 10-20 minutes): strongly down-regulated
p-p44/42 MAPK (Thr202/Tyr204) ([6]; SUM159, 10-20 minutes): upregulated
p-Akt (Ser473 and Thr308) ([6]; SUM159, melittin all time points, venom 10-20 minutes): suppressed
phosphorylation of EGFR and MAPK [7]: reduced the phosphorylation of EGFR and MAPK
effects on JAK/STAT pathway inhibitors [8]: No modulatory effects
PD-L1 expression in tumours (T11 tumours): 52.9±2.4%
tumour cell proliferation (Ki-67 expression) (T11 tumours): 31.7±1.3%
combination effect with docetaxel on cell viability (T11 cells [9]): beneficial effect when combined with docetaxel
combination effect with omomyc on cell viability (T11 cells [10]): beneficial effect when combined with omomyc
IC50 (COV362 cells): 7.81 µM
IC50 (OVCAR3 cells): 18.2 µM
ratio of the IC50s of HDFa/SUM159 (SUM159 cells [11]; 24 hours, mean±SEM): 1.76±0.04
half-maximal inhibitory concentration (IC50) (SUM159 cells [11]; TNBC SUM159): 4.24 µg/mL
